Calls of active or inactive are those of the source.
Experiments:
[1] = biological target: Luciferin 4-monooxygenase (Photinus pyralis, UniProt P08659); assay: inhibition of purified Photinus pyralis luciferase – biochemical, luminescence, dose response (AID 1891)
[2] = Luminescence Cell-Based Dose Confirmation HTS to Identify Inhibitors of Platelet Dense Granule Release. [Related pubchem assays: 1663 (Primary HTS), 1678 (Summary of Project)]; format: functional
[3] = biological target: T1, Rac GTPase-activating protein 1 (Homo sapiens, UniProt Q9H0H5); assay: blockers of MgcRacGAP-driven Rac1 GTP hydrolysis – biochemical, ADP Hunter fluorescence, primary and confirmatory, confirmation (AID 624330); format: functional
T1 sequence (Q9H0H5 whole entry): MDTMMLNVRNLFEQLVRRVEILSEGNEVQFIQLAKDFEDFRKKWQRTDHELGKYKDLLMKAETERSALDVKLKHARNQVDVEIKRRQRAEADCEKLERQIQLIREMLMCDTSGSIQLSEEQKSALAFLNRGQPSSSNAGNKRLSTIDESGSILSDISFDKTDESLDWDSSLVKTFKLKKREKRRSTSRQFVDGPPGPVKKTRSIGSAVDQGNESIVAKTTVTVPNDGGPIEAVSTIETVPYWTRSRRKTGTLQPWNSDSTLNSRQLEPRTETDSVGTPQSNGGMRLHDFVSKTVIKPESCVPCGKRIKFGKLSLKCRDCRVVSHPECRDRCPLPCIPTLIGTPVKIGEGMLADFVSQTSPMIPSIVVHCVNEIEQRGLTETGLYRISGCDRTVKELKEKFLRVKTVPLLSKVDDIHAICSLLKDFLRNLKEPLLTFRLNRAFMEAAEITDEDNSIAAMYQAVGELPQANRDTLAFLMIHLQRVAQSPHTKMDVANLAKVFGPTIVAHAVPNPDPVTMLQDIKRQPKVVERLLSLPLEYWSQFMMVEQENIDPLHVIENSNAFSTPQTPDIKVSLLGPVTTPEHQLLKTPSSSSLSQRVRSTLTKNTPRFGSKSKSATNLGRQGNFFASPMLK

[4] = Luminescence Cell-Based Dose Retest to Confirm Inhibitors of Cancer Stem Cells. [Related pubchem assays (depositor defined):AID2717, AID2721]; format: functional; conditions: Homo sapiens
[5] = Trypanosoma cruzi growth suppression in host cells – NIH3T3 host cells, beta-gal luminescence, confirmation (AID 2044); format: functional, cell-based;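 note: intracellular parasites grown in NIH/3T3 mouse fibroblasts as host cells; luminescent beta-galactosidase reporter signal from transgenic T. cruzi replicating inside host cells; inhibitors lower the luminescence signal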
[6] = NIH3T3 cell viability loss – ATP luminescence, mouse fibroblasts, counter-screen, dose response (AID 2010); format: functional, cell-based;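 note: cells exposed to compound for about 90 hours before reading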
Cytochrome P450 2C19 = Cytochrome P450 2C19 (Homo sapiens, UniProt P33261); assay: Cytochrome panel assay with activity outcomes. Panel member name: p450-cyp2c19 Compounds with AC50 equal or less than 10 uM are considered active; format: functional; conditions: read-out: AC50
Chain of Cytochrome P450 2C19 (P33261 whole entry): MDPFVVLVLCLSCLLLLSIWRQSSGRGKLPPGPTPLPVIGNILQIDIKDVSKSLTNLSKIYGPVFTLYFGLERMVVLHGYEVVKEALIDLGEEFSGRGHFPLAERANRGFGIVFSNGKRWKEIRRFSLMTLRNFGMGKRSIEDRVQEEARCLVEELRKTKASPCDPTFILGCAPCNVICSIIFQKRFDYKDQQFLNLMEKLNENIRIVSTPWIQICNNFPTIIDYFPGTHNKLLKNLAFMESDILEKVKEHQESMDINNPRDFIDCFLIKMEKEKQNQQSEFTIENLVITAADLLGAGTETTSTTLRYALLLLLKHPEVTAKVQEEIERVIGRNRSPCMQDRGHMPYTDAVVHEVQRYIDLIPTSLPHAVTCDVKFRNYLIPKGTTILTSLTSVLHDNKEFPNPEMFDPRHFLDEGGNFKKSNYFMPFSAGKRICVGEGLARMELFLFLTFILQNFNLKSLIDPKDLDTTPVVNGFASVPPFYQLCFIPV

Cytochrome P450 3A4 = Cytochrome P450 3A4 (Homo sapiens, UniProt P08684);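 note: CYP3A4 tested as one member of a cytochrome P450 panel screen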
Chain of Cytochrome P450 3A4 (P08684 whole entry): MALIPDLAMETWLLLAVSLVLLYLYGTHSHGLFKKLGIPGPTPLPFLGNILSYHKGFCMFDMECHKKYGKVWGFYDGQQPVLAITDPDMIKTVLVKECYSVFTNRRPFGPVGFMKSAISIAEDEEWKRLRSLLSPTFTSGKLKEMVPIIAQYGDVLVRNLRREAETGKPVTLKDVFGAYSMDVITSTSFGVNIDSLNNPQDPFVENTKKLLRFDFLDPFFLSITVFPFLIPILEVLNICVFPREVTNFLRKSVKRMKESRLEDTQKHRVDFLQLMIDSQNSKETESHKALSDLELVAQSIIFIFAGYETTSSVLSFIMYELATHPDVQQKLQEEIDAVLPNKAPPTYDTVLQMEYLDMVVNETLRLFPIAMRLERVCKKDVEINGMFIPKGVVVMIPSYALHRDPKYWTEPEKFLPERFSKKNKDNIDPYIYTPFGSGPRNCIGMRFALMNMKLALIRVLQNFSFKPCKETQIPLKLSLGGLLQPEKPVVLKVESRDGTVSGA

Cytochrome P450 2C9 = Cytochrome P450 2C9 (Homo sapiens, UniProt P11712)
Chain of Cytochrome P450 2C9 (P11712 whole entry): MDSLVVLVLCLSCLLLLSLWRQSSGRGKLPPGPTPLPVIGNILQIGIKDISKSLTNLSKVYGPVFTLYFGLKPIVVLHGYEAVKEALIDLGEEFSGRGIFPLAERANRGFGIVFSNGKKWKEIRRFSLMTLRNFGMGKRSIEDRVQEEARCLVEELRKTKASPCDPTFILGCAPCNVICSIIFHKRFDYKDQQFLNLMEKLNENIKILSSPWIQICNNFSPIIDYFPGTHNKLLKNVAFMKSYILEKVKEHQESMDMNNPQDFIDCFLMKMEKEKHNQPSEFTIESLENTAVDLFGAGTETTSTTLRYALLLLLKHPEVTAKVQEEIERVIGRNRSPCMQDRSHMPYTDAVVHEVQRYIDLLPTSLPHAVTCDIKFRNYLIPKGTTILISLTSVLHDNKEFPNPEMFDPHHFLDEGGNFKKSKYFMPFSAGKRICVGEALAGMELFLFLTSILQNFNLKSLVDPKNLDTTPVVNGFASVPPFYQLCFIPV

INS1 = assay: INS-1E survival protection against cytokine death – cell-based, luminescence, retest, dose response (AID 449756); format: functional; conditions: Rattus norvegicus;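 note: cell death triggered by IL-1 beta plus TNF-alpha plus IFN-gamma mixture; protective hits raise ATP signal compared with cytokine alone wells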
[7] = biological target: T2, Heat shock factor protein 1 (Mus musculus, UniProt P38532); assay: decrease of HSF1-responsive luciferase luminescence – cell-based, NIH3T3, dose retest, confirmation (AID 2382); format: functional;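 note: NIH3T3 fibroblasts with HSF1-driven luciferase reporter stressed by proteasome inhibitor MG132; luminescence from HSF1-driven luciferase expression after 8 hours of MG132 stress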
T2 sequence (P38532 whole entry): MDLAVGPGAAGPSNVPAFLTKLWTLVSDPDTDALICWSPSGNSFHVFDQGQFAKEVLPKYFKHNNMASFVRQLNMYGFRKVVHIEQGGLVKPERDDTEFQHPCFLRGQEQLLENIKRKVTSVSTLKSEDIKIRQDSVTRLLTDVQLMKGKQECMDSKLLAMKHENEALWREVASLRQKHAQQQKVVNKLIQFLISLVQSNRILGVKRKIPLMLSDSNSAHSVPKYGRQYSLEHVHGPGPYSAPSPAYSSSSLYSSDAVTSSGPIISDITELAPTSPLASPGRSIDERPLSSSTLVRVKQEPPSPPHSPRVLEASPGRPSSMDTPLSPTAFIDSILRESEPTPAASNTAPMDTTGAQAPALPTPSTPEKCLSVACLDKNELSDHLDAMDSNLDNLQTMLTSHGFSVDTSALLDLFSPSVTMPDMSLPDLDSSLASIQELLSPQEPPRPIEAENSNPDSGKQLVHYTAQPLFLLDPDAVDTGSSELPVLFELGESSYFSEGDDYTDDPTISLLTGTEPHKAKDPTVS

[8] = test system: Streptococcus sp. 'group A'; assay: Streptococcus pyogenes SK(-)GAS viability under kanamycin – luminescence, BacTiterGlo, confirmation, counter-screen for streptokinase expression inhibitor project, dose response (AID 1900); format: functional, organism-based
Streptokinase A = biological target: T3, Streptokinase A (Streptococcus pyogenes serotype M1, UniProt P10520); assay: viability-normalized secreted streptokinase activity reduction – plasminogen activation absorbance, OD405, dose response (AID 1914); format: functional, Streptococcus pyogenes M1 GAS;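 note: secreted streptokinase activity via plasminogen activation per viability signal from cell pellet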
T3 sequence (P10520 whole entry): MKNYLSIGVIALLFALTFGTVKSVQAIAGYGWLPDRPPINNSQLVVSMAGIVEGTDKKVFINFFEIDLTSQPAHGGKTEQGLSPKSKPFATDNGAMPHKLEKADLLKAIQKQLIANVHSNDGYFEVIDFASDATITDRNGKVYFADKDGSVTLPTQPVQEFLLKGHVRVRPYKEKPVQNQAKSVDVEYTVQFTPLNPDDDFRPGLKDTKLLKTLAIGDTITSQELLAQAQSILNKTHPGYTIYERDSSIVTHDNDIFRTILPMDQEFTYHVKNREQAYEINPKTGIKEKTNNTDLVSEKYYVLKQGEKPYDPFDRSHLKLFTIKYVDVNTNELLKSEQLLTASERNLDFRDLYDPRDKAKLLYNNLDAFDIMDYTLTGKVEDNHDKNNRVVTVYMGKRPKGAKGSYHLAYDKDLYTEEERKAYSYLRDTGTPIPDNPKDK

Streptococcus = assay: GAS UMAA2166 growth inhibition – luminescence, BacTiterGlo, counter-screen for streptokinase expression inhibitor project, dose response (AID 1915); format: functional, organism-based;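 note: potency for reduction of bacterial viability or growth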

Chain of Luciferin 4-monooxygenase (P08659 whole entry): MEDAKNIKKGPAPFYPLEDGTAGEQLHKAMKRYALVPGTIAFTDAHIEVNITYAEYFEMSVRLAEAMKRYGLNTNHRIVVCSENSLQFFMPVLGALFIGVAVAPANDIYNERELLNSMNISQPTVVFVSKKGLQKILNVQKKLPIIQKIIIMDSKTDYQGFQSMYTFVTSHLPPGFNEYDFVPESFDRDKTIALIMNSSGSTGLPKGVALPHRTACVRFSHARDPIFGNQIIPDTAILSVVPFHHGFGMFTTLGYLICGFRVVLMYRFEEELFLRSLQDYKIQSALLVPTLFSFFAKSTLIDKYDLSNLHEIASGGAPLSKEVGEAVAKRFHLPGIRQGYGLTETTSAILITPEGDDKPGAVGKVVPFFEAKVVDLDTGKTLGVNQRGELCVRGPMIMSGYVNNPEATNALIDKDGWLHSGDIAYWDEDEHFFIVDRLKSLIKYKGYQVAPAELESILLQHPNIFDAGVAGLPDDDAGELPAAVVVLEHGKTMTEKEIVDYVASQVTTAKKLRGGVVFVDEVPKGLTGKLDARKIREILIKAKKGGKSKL

## COc1ccc(CN2CCCC(C(=O)c3cccc(OC(C)C)c3)C2)cc1Cn1cccn1 (configuration not stated)
[1]
  EC50: > 112 µM (not active)
[2]
  EC50: > 112 µM (not active)

## COCCNC(=O)COc1ccc(Nc2ccccc2)cc1
[3]
  IC50: 47.6 µM (active)

## CN(C(S)=Nc1ccc(SC(F)F)cc1)C(c1ccccc1)c1ccccc1
[4]
  AC50: 4.57 µM (active)

## CCCCn1c(N)c(N(Cc2ccccc2OC)C(=O)C(C)Oc2ccc(Cl)cc2)c(=O)[nH]c1=O (configuration not stated)
[1]
  EC50: > 112 µM (not active)
[2]
  EC50: > 112 µM (not active)

## Cc1ccccc1-c1ccc(CN2CCN(C)C(CCO)C2)cc1 (configuration not stated)
[5]
  EC50: 0.828 µM (active)
[6]
  EC50: 4.69 µM (active)
[4]
  AC50: 2.9 µM (active)

## O=[N+]([O-])c1ccc(N2CCC(=NOCc3ccc(Cl)cc3)CC2)cc1
Cytochrome P450 2C19
  AC50: 4.47 µM (inconclusive)
Cytochrome P450 3A4
  AC50: 35.5 µM (inconclusive)
Cytochrome P450 2C9
  AC50: 14.1 µM (inconclusive)

## Cc1nn(CC(=O)Nc2cccnc2)c(C)c1[N+](=O)[O-]
[1]
  EC50: > 112 µM (not active)
[2]
  EC50: 7.26 µM (active)

## N=C(NOC(=O)c1ccc(Cl)cc1)c1[nH]ncc1Br
[1]
  EC50: 0.882 µM (active)
[2]
  EC50: 4.36 µM (active)

## C=C(Br)Cn1c(CCCC)nc2ccccc21
[4]
  AC50: 0.514 µM (active)

## O=C(O)/C=C/c1cccc(NC(=O)c2ccccc2)c1
[1]
  EC50: 4.49 µM (active)
[2]
  EC50: 17.4 µM (active)

## Cc1ccc(-c2nn(-c3ccccc3)cc2/C=C/C(=O)Nc2cccc(S(N)(=O)=O)c2)cc1
INS1
  AC50: 3.29 µM (active)

## Cc1cccc(N2C(S)=C(C#N)C(=O)NC2c2cccs2)c1 (configuration not stated)
[3]
  IC50: 110 µM (active)

## CCOC(=O)Nc1ccc2nc(Sc3ccc(Cl)cc3)sc2c1
[4]
  AC50: 1.53 µM (active)

## CS(=O)(=O)N1CCC2(CCCN(C(=O)Nc3cccc(F)c3)C2)CC1
Cytochrome P450 3A4
  AC50: 20 µM (inconclusive)

## CC1CCN(CC(=O)Nc2ccc(S(=O)(=O)NC3CC3)cc2)CC1
[7]
  EC50: > 195 µM (not active)
[3]
  IC50: 179 µM (active)

## O=C(CC1(O)C(=O)N(Cc2ccccc2)c2ccccc21)c1ccncc1 (configuration not stated)
[1]
  EC50: > 112 µM (not active)
[2]
  EC50: > 112 µM (not active)

## CC(=O)Nc1ccc(Nc2ccccc2)cc1
[3]
  IC50: 75.6 µM (active)

## O=C(COc1ccc2ccccc2c1)NNC(=O)Cc1cccc2ccccc12
Cytochrome P450 2C19
  AC50: 0.398 µM (inconclusive)
Cytochrome P450 3A4
  AC50: 14.1 µM (inconclusive)

## Cc1ccccc1CNc1ccc(C(CC(N)=O)NC(=O)c2ccccc2)cc1[N+](=O)[O-] (configuration not stated)
[4]
  AC50: 3.49 µM (active)

## O=C(Cc1ccc(Cl)c(Cl)c1)Nc1ccc(SC(F)F)cc1
[4]
  AC50: 4.04 µM (active)

## CC1(C)CC(=O)C(C(C#Cc2ccccc2)C2=C(O)CC(C)(C)CC2=O)=C(O)C1
Cytochrome P450 3A4
  AC50: 31.6 µM (inconclusive)

## COCCn1c(=O)c(-c2cn(C)c3ccccc23)nc2cnc(OCc3ccccc3)nc21
Cytochrome P450 3A4
  AC50: 7.94 µM (inconclusive)

## CN(C)CCOC(=O)CCc1ccccc1
[1]
  EC50: > 112 µM (not active)
[2]
  EC50: > 112 µM (not active)

## Cc1cc(C)c(-c2noc(C(=O)OC(C)(C)C)c2C(=O)OC(C)(C)C)c(C)c1
[8]
  EC50: 10.4 µM (active)
Streptokinase A
  EC50: 11.5 µM (active)
Streptococcus
  EC50: > 150 µM (not active)
Cytochrome P450 2C19
  AC50: 11.2 µM (inconclusive)
Cytochrome P450 2C9
  AC50: 12.6 µM (inconclusive)

## Cc1cc(NC(=S)NC(=O)CC(C)C)ccc1Br
Cytochrome P450 3A4
  AC50: 20 µM (inconclusive)
Cytochrome P450 2C9
  AC50: 0.0447 µM (inconclusive)

## OC(CNCC1COc2ccccc2O1)COCc1cccs1 (configuration not stated)
[3]
  IC50: 76.9 µM (active)

## Cc1cc(C(F)(F)F)nn1CC(=O)Nc1cccnc1
Cytochrome P450 2C19
  AC50: 22.4 µM (inconclusive)
Cytochrome P450 3A4
  AC50: 25.1 µM (inconclusive)
Cytochrome P450 2C9
  AC50: 39.8 µM (inconclusive)

## CC(OC(=O)CCNC1=NS(=O)(=O)c2ccccc21)C(=O)Nc1ccc(N(C)C)cc1 (configuration not stated)
[3]
  IC50: 54.7 µM (active)

## Cc1ccsc1/C=N/Nc1nc2ccccc2[nH]1
[3]
  IC50: 71.6 µM (active)

## O=[N+]([O-])C(=C\Nc1ccccc1O)/C=N/c1ccccc1O
[3]
  IC50: 58.9 µM (active)

## C/C(=N\Nc1nc(C)cc(-c2ccccc2)n1)c1cccc(N)c1
INS1
  AC50: 2.76 µM (active)

## O=C(N/N=C/c1ccc(OC2CSC2)cc1)c1ccccc1
[4]
  AC50: 2.49 µM (active)

## CC1(C)C(=O)N=C2C1=C(O)C(=O)c1ccccc12
Cytochrome P450 2C19
  AC50: 31.6 µM (inconclusive)
Cytochrome P450 3A4
  AC50: 31.6 µM (inconclusive)
Cytochrome P450 2C9
  AC50: 25.1 µM (inconclusive)

## CCCCC[C@H](O)/C=C/[C@H]1[C@H](O)CC(=O)[C@@H]1CCCCCCC(=O)O [ALPROSTADIL]
[1]
  EC50: > 112 µM (not active)
[2]
  EC50: < 0.088 µM (active)

From ChEMBL document CHEMBL1201862, “PubChem BioAssay data set” (2004)
